| Compound | melting point [°C] |
| --- | --- |
| COc1cccc(Cl)c1C(O)C(N)=O (stereo unspecified) | 116 to 118 |
| CCN(CC)C(=O)C(C)Cc1nc(-c2ccccc2)nc2ccccc12 (stereo unspecified) | 93.5 |
| O=C(CCC(F)(F)F)Nc1ccccc1 | 187 |
| CC(=O)OCCCC(=O)CC(=O)c1ccccc1 | 48 to 49 |
| CC(C#N)Oc1ccc(Oc2ccc(C(F)(F)F)cc2)cc1 (stereo unspecified) | 53 to 56 |
| COCC(COC)(CN(C)CCP(C)(C)=S)SCc1ccccc1 | 74 |
| COc1cc(C2NC(C(=O)O)CS2)ccc1OCC(=O)NCCO[N+](=O)[O-] (stereo unspecified) | 151 to 152 |
| Fc1ccc2c(C3CCNCC3)n[nH]c2c1 | 214 to 216 |
| Nc1nc(-c2ccc([N+](=O)[O-])cc2)c[nH]1 | 235 to 240 |
| O=S(=O)(Nc1cccnc1Nc1ccccc1)c1ccc(Oc2ccccc2)cc1 | 164 to 166 |
| C[C@]12CC[C@@H]3C4=C(CC[C@H]3[C@@H]1CCC21CC(O)CO1)CC(=O)CC4 (stereo partly specified) | 118 to 123 |
| N=C(CSc1nc2cc(Cl)ccc2s1)NO | 155 to 157 |
| O=C(COc1ccccc1)NC1CNC1=O (stereo unspecified) | 153 to 155 |
| COC=C(C(=O)OC)c1ccccc1CC(=O)c1ccccc1Cl | 70 to 75 |
| CCOC(=O)Nc1cc(F)cc(CCCCC(=O)O)c1 | 136 to 137 |
| CCc1cccc(CC)c1NC(=O)NCC1(c2ccccc2)CCCC1 | 165 to 167 |
| O=c1oc2cc(O)cc(O)c2c(O)c1C1c2ccccc2Oc2c1c(=O)oc1cc(O)cc(O)c21 (stereo unspecified) | > 300 |
| CCN(CC)OC(C(=O)O)(C(=O)O)c1ccccc1 | > 250 |
| CC1(C)Oc2ccc(C#N)cc2[C@@H](OC2=CC(=O)CC2)[C@@H]1O (relative stereo) | 154 to 156 |
| N#CC(C#N)=C(NCCCN1CCCCC1)NCCCN1CCCCC1 | 110 to 112 |
| CCOC(=O)N(N)C(=O)c1ccccc1O | 126 |
| O=C(O)C1c2cc(Br)ccc2COc2ccccc21 (stereo unspecified) | 187 to 189 |
| O=C(O)C(=O)c1ccc(OCCCn2c(=O)ccc3ccccc32)cc1 | 183 to 186 |

The remaining lines, values ahead:

| melting point [°C] | Compound |
| --- | --- |
| 175 to 176 | Cn1c2ccccc2c2sc3ccccc3c21 |
| 152 to 160 | CC(=O)n1ccc(=O)c(O)c1C |
| 291 to 294 | CCc1nn(C)c2[nH]c(=O)c3ccccc3c12 |
| 52 to 54 | O=C(CCCCCOc1cc(-c2ccccc2)c2ccccc2n1)N1CCCC1 |
| 119 to 120 | CCOC(=O)c1cccc([N+](=O)[O-])c1NCc1ccc(-c2ccccc2C#N)cc1 |
| 162 to 163 | CC(N)C(Cc1ccc(OCc2ccccc2)cc1)CC(O)c1ccccc1F (stereo unspecified) |
| 231 to 233 | Cc1cnc(C(=O)c2[nH]c3ccc(Cl)cc3c2CC(=O)O)s1 |
| 179 to 181 | CC1=NC(NC(=O)Nc2cccc(C)c2)C(=O)N(CC(=O)C2CCCCC2)c2c(C)cccc21 (stereo unspecified) |
| 159 to 161 | CC(C)c1nc(COC(N)=O)n(CCOC(N)=O)c1Sc1cc(Cl)cc(Cl)c1 |
| 153 to 154 | CCCCCCCCCCCCS(=O)(=O)c1cc(C(=O)O)c([N+](=O)[O-])c(S(=O)(=O)CCCCCCCCCCCC)c1 |
| 176 | Cc1cc(Cl)cc(C(=O)Nc2cccc(Cl)n2)n1 |
| 80 | Cc1cc(-n2ccnc2)c2cccc(OCc3c(Cl)ccc(S(=O)(=O)N4CCC[C@H]4C(=O)N(C)CCCN(C)C)c3Cl)c2n1 |
| 139 to 140 | COc1cc(C=C(N)C(C)=O)ccc1OCC(O)CNC(C)C (stereo unspecified) |
| 46 to 47 | CCC(=O)c1cnccn1 |
| 188 | COC(=O)c1cc(C(=O)c2c(C)c(OC)c3c(OCC(=O)OC(C)(C)C)cccn23)ccc1N |
| 256 to 259 | O=C1Nc2cc(Cl)ccc2Cn2nnnc21 |
| 328 to 329 | FC(F)(F)c1cc(Cl)c(-c2nc(Br)c(Br)[nH]2)c(Cl)c1 |
| 199 to 200 | COCCn1nc2c(N)nc3ccccc3c2c1CC(C)(C)N |
